From ChEMBL document CHEMBL1649076, “Discovery of 5-chloro-N2-[(1S)-1-(5-fluoropyrimidin-2-yl)ethyl]-N4-(5-methyl-1H-pyrazol-3-yl)pyrimidine-2,4-diamine (AZD1480) as a novel inhibitor of the Jak/Stat pathway” (J Med Chem, 2011)

How the values were obtained:
[1] = Oral bioavailability in Han Wistar rat at 10 mg/kg; assay type: ADME, organism-based; details: in vivo
[2] = Volume of distribution at steady state in Han Wistar rat at 10 mg/kg, po and 3 mg/kg, iv; assay type: ADME, organism-based; details: in vivo, read-out: Vdss
[3] = Observed clearance in Han Wistar rat at 10 mg/kg, po and 3 mg/kg, iv; assay type: ADME, organism-based; details: in vivo
[4] = Half life in Han Wistar rat at 10 mg/kg, po and 3 mg/kg, iv; assay type: ADME, organism-based; details: in vivo
[5] = Octanol-water partition coefficient, log D of the compound at pH 7.4 by shake flask method; assay type: physicochemical
Liver microsomes = assay: Intrinsic clearance in rat liver microsomes assessed per mg of protein at 2 uM by LCMS/MS analysis; assay type: ADME, Microsome
[6] = molecular target: T1, Tyrosine-protein kinase JAK3 (Homo sapiens, UniProt P52333); assay: Inhibition of JAK3 using 5 mM of ATP
T1 sequence (P52333 whole entry): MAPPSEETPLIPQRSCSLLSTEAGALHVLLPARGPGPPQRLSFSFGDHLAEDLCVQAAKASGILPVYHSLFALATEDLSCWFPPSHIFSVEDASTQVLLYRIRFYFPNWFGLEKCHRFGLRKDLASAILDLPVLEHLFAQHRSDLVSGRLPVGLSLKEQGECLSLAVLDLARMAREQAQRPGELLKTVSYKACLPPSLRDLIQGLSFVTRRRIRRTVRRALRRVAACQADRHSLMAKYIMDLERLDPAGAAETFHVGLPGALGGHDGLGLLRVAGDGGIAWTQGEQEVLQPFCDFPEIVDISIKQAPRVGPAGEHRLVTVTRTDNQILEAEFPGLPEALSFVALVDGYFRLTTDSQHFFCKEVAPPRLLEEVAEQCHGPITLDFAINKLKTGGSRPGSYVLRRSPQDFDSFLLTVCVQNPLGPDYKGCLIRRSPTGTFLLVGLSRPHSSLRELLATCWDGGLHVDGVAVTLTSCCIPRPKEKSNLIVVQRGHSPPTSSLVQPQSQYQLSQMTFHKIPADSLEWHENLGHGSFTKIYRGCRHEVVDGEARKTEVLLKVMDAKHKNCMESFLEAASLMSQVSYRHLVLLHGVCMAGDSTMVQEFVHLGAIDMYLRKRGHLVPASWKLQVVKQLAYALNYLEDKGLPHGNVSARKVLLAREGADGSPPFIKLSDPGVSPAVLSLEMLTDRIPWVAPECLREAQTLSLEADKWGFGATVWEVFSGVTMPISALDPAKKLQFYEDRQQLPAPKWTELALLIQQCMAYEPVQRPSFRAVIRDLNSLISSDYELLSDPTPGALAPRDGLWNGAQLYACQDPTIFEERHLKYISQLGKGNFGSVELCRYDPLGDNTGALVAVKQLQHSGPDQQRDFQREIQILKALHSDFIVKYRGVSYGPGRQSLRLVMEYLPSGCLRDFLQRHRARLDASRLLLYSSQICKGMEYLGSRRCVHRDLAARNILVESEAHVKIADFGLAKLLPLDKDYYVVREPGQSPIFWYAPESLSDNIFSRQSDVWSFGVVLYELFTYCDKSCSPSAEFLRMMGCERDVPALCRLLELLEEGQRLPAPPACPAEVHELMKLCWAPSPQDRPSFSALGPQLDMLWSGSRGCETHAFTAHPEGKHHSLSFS

[7] = Aqueous equilibrium solubility of the compound at pH 7.4 by HPLC-UV analysis; assay type: physicochemical
[8] = Growth inhibition of mouse BA/F3 cells expressing Tel-JAK2 kinase after 48 hrs by MTS assay; assay type: functional; details: BaF3, 48 h
[9] = molecular target: T2, Tyrosine-protein kinase JAK2 (Homo sapiens, UniProt O60674); assay: Inhibition of JAK2 using Km ATP concentration
T2 sequence (O60674 whole entry): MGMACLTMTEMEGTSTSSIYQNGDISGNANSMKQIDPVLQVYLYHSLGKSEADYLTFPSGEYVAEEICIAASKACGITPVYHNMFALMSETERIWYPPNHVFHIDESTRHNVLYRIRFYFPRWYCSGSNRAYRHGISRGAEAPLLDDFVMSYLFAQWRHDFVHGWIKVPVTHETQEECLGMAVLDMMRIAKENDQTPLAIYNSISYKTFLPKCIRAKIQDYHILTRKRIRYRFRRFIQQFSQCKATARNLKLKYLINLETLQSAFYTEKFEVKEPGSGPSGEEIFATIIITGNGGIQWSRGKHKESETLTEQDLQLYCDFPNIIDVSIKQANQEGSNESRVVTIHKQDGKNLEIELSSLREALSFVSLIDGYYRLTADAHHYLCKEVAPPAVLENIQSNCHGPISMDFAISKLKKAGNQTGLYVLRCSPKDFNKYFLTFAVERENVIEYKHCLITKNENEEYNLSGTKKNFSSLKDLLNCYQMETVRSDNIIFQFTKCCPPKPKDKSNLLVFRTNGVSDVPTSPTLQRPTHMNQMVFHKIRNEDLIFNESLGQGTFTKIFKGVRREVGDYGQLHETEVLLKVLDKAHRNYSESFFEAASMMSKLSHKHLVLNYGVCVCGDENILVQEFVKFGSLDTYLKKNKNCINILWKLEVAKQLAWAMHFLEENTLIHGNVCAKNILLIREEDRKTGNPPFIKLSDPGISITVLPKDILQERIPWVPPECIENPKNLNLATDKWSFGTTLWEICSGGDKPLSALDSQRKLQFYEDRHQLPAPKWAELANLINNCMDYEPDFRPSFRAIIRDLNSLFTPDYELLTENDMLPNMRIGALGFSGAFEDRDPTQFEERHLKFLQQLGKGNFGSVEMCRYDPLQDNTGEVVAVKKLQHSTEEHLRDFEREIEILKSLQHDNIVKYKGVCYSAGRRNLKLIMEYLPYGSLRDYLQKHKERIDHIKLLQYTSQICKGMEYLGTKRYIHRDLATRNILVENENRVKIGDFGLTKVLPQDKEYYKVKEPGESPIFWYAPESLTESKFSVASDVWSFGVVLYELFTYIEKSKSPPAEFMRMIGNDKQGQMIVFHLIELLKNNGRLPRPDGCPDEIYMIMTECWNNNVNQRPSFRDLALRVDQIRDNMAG

[10] = molecular target: T2, Tyrosine-protein kinase JAK2; assay: Inhibition of JAK2 using 5 mM of ATP
[11] = Inhibition of Stat5 phosphorylation in mouse Ba/F3 cells expressing EPOR; details: BaF3

bioavailability [1] | Vd [2] | clearance [3] | half-life [4] | logD [5] | clearance (Liver microsomes) | IC50 [6] | solubility thermodynamic [7] | IC50 [9] | IC50 [10] | EC50 [11] | SMILES | GI50 [8]
100% | 0.8 L/kg | 12 mL/min/kg | 51 min | < 2.6 | 10 µL/min/mg | 5.25 µM | > 460 µM |  |  |  | Cc1cc(Nc2nc(N[C@@H](C)c3ncc(F)cn3)ncc2F)n[nH]1 | 230 nM
 |  |  |  | < 2.6 |  |  | > 460 µM | 3 nM |  |  | C[C@H](Nc1ncc(F)c(Nc2cc(C3CC3)[nH]n2)n1)c1ncc(F)cn1 | 250 nM
 |  |  |  | < 2.6 |  | > 30 µM | > 460 µM | 3 nM | 108 nM |  | COc1cc(Nc2nc(N[C@@H](C)c3ncc(F)cn3)ncc2Cl)n[nH]1 | 410 nM
 |  |  |  | < 2.6 |  |  | > 460 µM | < 3 nM |  |  | C[C@H](Nc1ncc(Cl)c(Nc2cc(C3CC3)[nH]n2)n1)c1ncc(F)cn1 | 150 nM
100% | 2.4 L/kg | 18 mL/min/kg | 114 min | < 2.6 | 25 µL/min/mg | 8.35 µM | > 460 µM | < 3 nM | 4 nM |  | Cc1cc(Nc2nc(N[C@@H](C)c3ncc(F)cn3)ncc2C)n[nH]1 | 96 nM
 |  |  |  | < 2.6 |  | 12.7 µM | > 460 µM |  |  | 39 µM | Cc1cc(Nc2nc(O[C@@H](C)c3ncc(F)cn3)ncc2Cl)n[nH]1 | 170 nM
 |  |  |  | < 2.6 |  | > 30 µM | > 460 µM |  |  |  | Cc1cc(Nc2nc(O[C@H](C)c3ncc(F)cn3)ncc2Cl)n[nH]1 | > 10000 nM
 |  |  |  | < 2.6 |  | > 30 µM | > 460 µM | 4 nM | 108 nM |  | COc1cc(Nc2nc(N[C@@H](C)c3ncc(F)cn3)ncc2Br)n[nH]1 | 590 nM
 |  |  |  | < 2.6 |  | 4.59 µM | > 460 µM | < 3 nM | 10 nM |  | Cc1cc(Nc2nc(N[C@@H](C)c3ncc(F)cn3)ncc2Br)n[nH]1 | 89 nM
